Tests used:
[1] = cited from earlier work
[2] = Andersen Cascade Impactor (ACI) with USP throat, aerodynamic particle size distribution, pMDI alone vs pMDI with chamber, continuous flow 28.3 L/min; assay type: physicochemical; conditions: for reduction in FPD (μg) as compared to the pMDI alone: pMDI with OPTICHAMBER
Experimental: Pressurized MDI products were tested alone and as an inhalation system/drug product which included a pMDI in combination with one chamber such as the A[…]-STAT Plus™ (volume=148 mL), A[…]® (volume=[…]), VORTEX® AND OPTICHAMBER®.
An Andersen Cascade Impactor (ACI) with USP throat was used to measure aerodynamic particle size distribution. Two impactor configurations were used for the two flow rates. Plates 0 through 7 were used for sampling at 28.3 L/min; plates—1 through 6 were used for sampling at 60 L/min. The effective cut off diameters for the plates in each configuration were provided by the manufacturer. Total delivered dose values report the total mass of active ingredient recovered from the impactor (throat, plates and filter). Fine particle dose values report the total mass of active ingredient with aerodynamic diameter less than 4.7 μm.
FIGS. 1 and 2 show throat, fine particle dose and total delivered dose recoveries for both active ingredients, as measured by ACI under continuous flow at 28.3 L/min. Recoveries are shown for different spacer devices and the pMDI, as indicated in the legends. Data points represent mean values (n=5); error bars indicate one standard deviation.

[3] = cited from earlier work; remark: listed apart in the source
[4] = pMDI with AEROCHAMBER Z-STAT PLUS

reduction of deposition in the throat portion of the ACI ([2]; use of several of the chambers vs pMDI alone)	SMILES	solubility in acetone [1]	solubility in diethyl ether ([1]; diethyl ether)	solubility in ethanol [1]	solubility in ethyl acetate ([1]; ethyl acetate)	solubility in glacial acetic acid ([1]; glacial acetic acid)	solubility in isopropanol [1]	solubility in methanol [1]	solubility in water [1]	difference in fine particle dose (FPD, <4.7 μm) vs pMDI alone ([2]; pMDI with AEROCHAMBER MAX) [%]	difference in fine particle dose (FPD, <4.7 μm) vs pMDI alone [2, 4]	reduction in FPD (μg) as compared to the pMDI alone [2]	difference in fine particle dose (FPD, <4.7 μm) vs pMDI alone ([2]; pMDI with VORTEX) [%]	solubility in chloroform ([1]; chloroform)	solubility in tetrahydrofuran ([1]; tetrahydrofuran)	partition coefficient between octanol and water [3]
–	COc1ccc(CC(C)NCC(O)c2ccc(O)c(NC=O)c2)cc1.O.O.O=C(O)/C=C/C(=O)O (racemic) [formoterol fumarate, (±)2-hydroxy-5-[(1RS)-1-hydroxy-2-[[(1RS)-2-(4-methoxyphenyl)-1methylethyl]-amino]ethyl] formanilide fumarate dihydrate]	practically insoluble	practically insoluble	sparingly soluble	practically insoluble	freely soluble	sparingly soluble	soluble	slightly soluble	≤ 15	less than 5%	about 30%	≤ 20	–	–	–
about 90%	C[C@@H]1C[C@H]2[C@@H]3CCC4=CC(=O)C=C[C@]4(C)[C@@]3(Cl)[C@@H](O)C[C@]2(C)[C@@]1(OC(=O)c1ccco1)C(=O)CCl [mometasone furoate, 9,21-Dichloro-11(beta), 17-dihydroxy-16(alpha)-methylpregna-1,4-diene-3,20-dione 17-(2 furoate)]	soluble	–	slightly soluble	–	–	slightly soluble	slightly soluble	practically insoluble	≤ 15	less than 5%	about 30%	≤ 20	soluble	freely soluble	greater than 5000

— patent publication US20110182830A1, “INHALATION DRUG PRODUCTS, SYSTEMS AND USES” (Schering Corporation, priority 2008, published 2011)
